Laboratory results taken from patent US20070049564A1 (Wyeth, priority 2005, published 2007).
In brackets after ≈: the same amount, converted by molar mass. Read-outs that look alike come from different tables or passages of the source.

Legend:
E. coli GC 3226 = assay: MIC, broth microdilution; details: Escherichia coli, GC3226, E. coli GC 3226
E. coli GC 2232 = assay: MIC, broth microdilution; details: Escherichia coli, GC2232, E. coli GC 2232
E. coli GC 2271 = assay: MIC, broth microdilution; details: Escherichia coli, GC2271, E. coli GC 2271
P. aeruginosa GC 2214 = assay: MIC, broth microdilution; details: Pseudomonas aeruginosa, GC2214, P. aeruginosa GC 2214
E. coli GC 2203 = assay: MIC, broth microdilution; details: Escherichia coli, GC2203, E. coli GC 2203
E. coli GC 2235 = assay: MIC, broth microdilution; details: Escherichia coli, GC2235, E. coli GC 2235
S. agalactiae GC 4564 = assay: MIC, broth microdilution; details: Streptococcus agalactiae, GC4564, S. agalactiae GC 4564
E. coli GC 2270 = assay: MIC, broth microdilution; details: Escherichia coli, GC2270, E. coli GC 2270
Staph. aureus Smith = assay: In vivo activity (oral, iv; ED50) against Staph. aureus Smith in mice
Experimental: Representative examples of compounds of Formula I were tested for the oral efficacy using S. aureus Smith in mice.

E. faecalis GC 2267 = assay: MIC, broth microdilution; details: Enterococcus faecalis, GC2267, E. faecalis GC 2267
S. aureus GC 6467 = assay: MIC, broth microdilution; details: Staphylococcus aureus, GC6467, S. aureus GC 6467
S. aureus GC 2216 = assay: MIC, broth microdilution; details: Staphylococcus aureus, GC2216, S. aureus GC 2216
S. pneumoniae* GC 4465 = assay: MIC, broth microdilution; details: Streptococcus pneumoniae, S. pneumoniae* GC 4465
E. faecium GC 4556 = assay: MIC, broth microdilution; details: Enterococcus faecium, GC4556, E. faecium GC 4556
Experimental: (§1) Antimicrobial susceptibility testing. The in vitro activities of the antibiotics are determined by the broth microdilution method as recommended by the National Committee for Clinical Laboratory Standards (NCCLS) (1). Mueller-Hinton II broth (MHBII)(BBL Cockeysville, Md.) is the medium employed in the testing procedures. Microtiter plates containing serial dilutions of each antimicrobial agent are inoculated with each organism to yield the appropriate density (10^5 CFU/ml) in a 100 μl final volume. The plates are incubated for 18-22 hours at 35° C. in ambient air.
(§2) Representative compounds were first incubated in mouse serum for an hour prior to the in vitro testing against a panel of selected gram-positive and gram-negative bacteria strains. All compounds were also pre-incubated in water for an hour prior to testing as control. Representative compounds of Formula I were incubated in human serum prior to MIC determination.

S. aureus GC 6335 = assay: MIC, broth microdilution; details: Staphylococcus aureus, GC6335, S. aureus GC 6335
E. coli GC 4559 = assay: MIC, broth microdilution; details: Escherichia coli, GC4559, E. coli GC 4559
S. typhimurium GC 2172 = assay: MIC, broth microdilution; details: Salmonella enterica, TYPHIMURIUM, S. typhimurium GC 2172
Experimental: as §1
Representative compounds were first incubated in mouse serum for an hour prior to the in vitro testing against a panel of selected gram-positive and gram-negative bacteria strains. All compounds were also pre-incubated in water for an hour prior to testing as control.

E. faecalis GC 2242 = assay: MIC, broth microdilution; details: Enterococcus faecalis, GC2242, E. faecalis GC 2242
Experimental: as §1, §2

E. coli GC 4560 = assay: MIC, broth microdilution; details: Escherichia coli, GC4560, E. coli GC 4560
E. coli GC 2231 = assay: MIC, broth microdilution; details: Escherichia coli, GC2231, E. coli GC 2231
[1] = Staphylococcus aureus, in Mus musculus, po, read-out: ED50 Staph Smith SOD
[2] = iv, read-out: ED50 Staph Smith SIV

| SMILES | MIC (E. coli GC 3226; Mouse Serum pre-incubation) | MIC (E. coli GC 3226; Water pre-incubation) | MIC (E. coli GC 2232; Mouse Serum pre-incubation) | MIC (E. coli GC 2232; Water pre-incubation) | MIC (E. coli GC 2271; Mouse Serum pre-incubation) | MIC (E. coli GC 2271; Water pre-incubation) | MIC (P. aeruginosa GC 2214; Mouse Serum pre-incubation) | MIC (P. aeruginosa GC 2214; Water pre-incubation) | MIC (E. coli GC 2203; Mouse Serum pre-incubation) | MIC (E. coli GC 2203; Water pre-incubation) | MIC (E. coli GC 2235; Mouse Serum pre-incubation) | MIC (E. coli GC 2235; Water pre-incubation) | MIC (S. agalactiae GC 4564; Mouse Serum pre-incubation) | MIC (S. agalactiae GC 4564; Water pre-incubation) | MIC (E. coli GC 2270; Mouse Serum pre-incubation) | MIC (E. coli GC 2270; Water pre-incubation) | ED50 (Staph. aureus Smith; [1]) | ED50 (Staph. aureus Smith; [2]) | MIC (E. faecalis GC 2267; Mouse Serum pre-incubation) | MIC (E. faecalis GC 2267; Water pre-incubation) | also measured |
| --- | --- | --- | --- | --- | --- | --- | --- | --- | --- | --- | --- | --- | --- | --- | --- | --- | --- | --- | --- | --- | --- |
| CCCCN(CC(=O)Nc1cc(N(C)C)c2c(c1O)C(=O)C1=C(O)[C@]3(O)C(=O)C(C(N)=O)=C(O)[C@@H](N(C)C)[C@@H]3C[C@@H]1C2)C(=O)OCOC(=O)C(C)(C)C [Example 13, ({[(2-{[(5aR,6aS,7S,10aS)-9-(aminocarbonyl)-4,7-bis(dimethylamino)-1,8,10a,11-tetrahydroxy-10,12-dioxo-5,5a,6,6a,7,10,10a,12-octahydrotetracen-2-yl]amino}-2-oxoethyl)(butyl)amino]carbonyl}oxy)methyl pivalate] | 2 µg/mL (≈ 2.69 µM) | 16 µg/mL (≈ 21.5 µM) | 2 µg/mL (≈ 2.69 µM) | 8 µg/mL (≈ 10.8 µM) | 2 µg/mL (≈ 2.69 µM) | 8 µg/mL (≈ 10.8 µM) | 32 µg/mL (≈ 43 µM) | > 64 µg/mL | 2 µg/mL (≈ 2.69 µM) | 8 µg/mL (≈ 10.8 µM) | 2 µg/mL (≈ 2.69 µM) | 8 µg/mL (≈ 10.8 µM) | 1 µg/mL (≈ 1.34 µM) | 2 µg/mL (≈ 2.69 µM) | 1 µg/mL (≈ 1.34 µM) | 8 µg/mL (≈ 10.8 µM) | 11 mg/kg | 0.82 mg/kg | 4 µg/mL (≈ 5.38 µM) | 8 µg/mL (≈ 10.8 µM) | MIC (S. aureus GC 6467; Mouse Serum pre-incubation): 4 µg/mL (≈ 5.38 µM); MIC (S. aureus GC 6467; Water pre-incubation): 8 µg/mL (≈ 10.8 µM); MIC (S. aureus GC 2216; Mouse Serum pre-incubation): 2 µg/mL (≈ 2.69 µM); MIC (S. aureus GC 2216; Water pre-incubation): 4 µg/mL (≈ 5.38 µM); MIC (S. pneumoniae* GC 4465; Mouse Serum pre-incubation): 0.5 µg/mL (≈ 0.672 µM); MIC (S. pneumoniae* GC 4465; Water pre-incubation): 0.5 µg/mL (≈ 0.672 µM); MIC (E. faecium GC 4556; Mouse Serum pre-incubation): 2 µg/mL (≈ 2.69 µM); MIC (E. faecium GC 4556; Water pre-incubation): 8 µg/mL (≈ 10.8 µM); MIC (S. aureus GC 6335; Mouse Serum pre-incubation): 2 µg/mL (≈ 2.69 µM); MIC (S. aureus GC 6335; Water pre-incubation): 4 µg/mL (≈ 5.38 µM); MIC (E. coli GC 4559; Mouse Serum pre-incubation): 4 µg/mL (≈ 5.38 µM); MIC (E. coli GC 4559; Water pre-incubation): 16 µg/mL (≈ 21.5 µM); MIC (S. typhimurium GC 2172; Mouse Serum pre-incubation): 8 µg/mL (≈ 10.8 µM); MIC (S. typhimurium GC 2172; Water pre-incubation): 64 µg/mL (≈ 86 µM); MIC (E. faecalis GC 2242; Mouse Serum pre-incubation): 4 µg/mL (≈ 5.38 µM); MIC (E. faecalis GC 2242; Water pre-incubation): 8 µg/mL (≈ 10.8 µM); MIC (E. coli GC 4560; Mouse Serum pre-incubation): 1 µg/mL (≈ 1.34 µM); MIC (E. coli GC 4560; Water pre-incubation): 4 µg/mL (≈ 5.38 µM); MIC (E. coli GC 2231; Mouse Serum pre-incubation): 2 µg/mL (≈ 2.69 µM); MIC (E. coli GC 2231; Water pre-incubation): 16 µg/mL (≈ 21.5 µM) |
| CCCN(CC(=O)Nc1cc(N(C)C)c2c(c1O)C(=O)C1=C(O)[C@]3(O)C(=O)C(C(N)=O)=C(O)[C@@H](N(C)C)[C@@H]3C[C@@H]1C2)C(=O)OCc1ccccc1 [Example 14, benzyl 2-{[(5aR,6aS,7S,10aS)-9-(aminocarbonyl)-4,7-bis(dimethylamino)-1,8,10a,11-tetrahydroxy-10,12-dioxo-5,5a,6,6a,7,10,10a,12-octahydrotetracen-2-yl]amino}-2-oxoethyl(propyl)carbamate] | > 64 µg/mL | > 64 µg/mL | > 64 µg/mL | > 64 µg/mL | > 64 µg/mL | > 64 µg/mL | > 64 µg/mL | > 64 µg/mL | 32 µg/mL (≈ 45.3 µM) | 64 µg/mL (≈ 90.7 µM) | 32 µg/mL (≈ 45.3 µM) | 64 µg/mL (≈ 90.7 µM) | 16 µg/mL (≈ 22.7 µM) | 16 µg/mL (≈ 22.7 µM) | > 64 µg/mL | > 64 µg/mL | > 32 mg/kg | > 2 mg/kg | 2 µg/mL (≈ 2.83 µM) | 8 µg/mL (≈ 11.3 µM) | MIC (S. aureus GC 6467; Mouse Serum pre-incubation): 2 µg/mL (≈ 2.83 µM); MIC (S. aureus GC 6467; Water pre-incubation): 4 µg/mL (≈ 5.67 µM); MIC (S. aureus GC 2216; Mouse Serum pre-incubation): 2 µg/mL (≈ 2.83 µM); MIC (S. aureus GC 2216; Water pre-incubation): 4 µg/mL (≈ 5.67 µM); MIC (S. pneumoniae* GC 4465; Mouse Serum pre-incubation): 2 µg/mL (≈ 2.83 µM); MIC (S. pneumoniae* GC 4465; Water pre-incubation): 4 µg/mL (≈ 5.67 µM); MIC (E. faecium GC 4556; Mouse Serum pre-incubation): 4 µg/mL (≈ 5.67 µM); MIC (E. faecium GC 4556; Water pre-incubation): 8 µg/mL (≈ 11.3 µM); MIC (S. aureus GC 6335; Mouse Serum pre-incubation): 1 µg/mL (≈ 1.42 µM); MIC (S. aureus GC 6335; Water pre-incubation): 4 µg/mL (≈ 5.67 µM); MIC (E. coli GC 4559; Mouse Serum pre-incubation): > 64 µg/mL; MIC (E. coli GC 4559; Water pre-incubation): > 64 µg/mL; MIC (S. typhimurium GC 2172; Mouse Serum pre-incubation): > 64 µg/mL; MIC (S. typhimurium GC 2172; Water pre-incubation): > 64 µg/mL; MIC (E. faecalis GC 2242; Mouse Serum pre-incubation): 2 µg/mL (≈ 2.83 µM); MIC (E. faecalis GC 2242; Water pre-incubation): 8 µg/mL (≈ 11.3 µM); MIC (E. coli GC 4560; Mouse Serum pre-incubation): 4 µg/mL (≈ 5.67 µM); MIC (E. coli GC 4560; Water pre-incubation): 4 µg/mL (≈ 5.67 µM); MIC (E. coli GC 2231; Mouse Serum pre-incubation): > 64 µg/mL; MIC (E. coli GC 2231; Water pre-incubation): > 64 µg/mL |
